Reference: EP0393104B1, “MEASUREMENT OF PGE 2 (PROSTAGLANDIN E 2) LEVELS IN PATIENTS WITH CHRONIC INFLAMMATORY BOWEL DISEASE” (priority 1987, dated 1989)
“And” between values parts separate entries of the source, which are not always exact repeats. Equal values may be shown once.

Assays:
[1] = test system: inactive ulcerative colitis; test: Double-blind maintenance treatment with SAZ or placebo after rise of PGE2: relapse/remission; assay type: in vivo, patients
Description: Patients fulfilling the following entry criteria were candidates for the study: (a) proven UC. […] Patients were considered in remission when symptom-free (i.e., stool frequency 2 x a day, without discharge of blood, pus, or mucus from the rectum), with normal sigmoidoscopic appearance, and with no significant inflammation on rectal biopsy.
(§1) Equilibrium in vivo dialysis of faeces as well as equilibrium in vivo dialysis of rectum were done in consenting patients fulfilling the entry criteria. Subsequently, SAZ treatment was stopped and the patients were observed free of medication. Evaluation of clinical disease activity, in addition to sigmoidoscopy with rectal biopsies for assessing endoscopic and histologic disease activity, were done at scheduled visits after two weeks, after two, six, and 12 months, and in-between, if indicated by recurrence of colitic symptoms. A relapse was defined as a recurrence of colitic symptoms accompanied by endoscopic signs of inflammation. If a relapse occurred the patient was withdrawn. At the scheduled visits also in vivo dialysis measurements were carried out. […]

ulcerative colitis = conditions: background statement; cited from earlier work
PGE2 [2] = test: Equilibrium in vivo dialysis of rectum with radioimmunoassay of PGE2 (enema trial); set-up: species or system patients; conditions: median, enema groups irrespective of SAZ (+/-), SAZ line = no enema, with SAZ maintenance
Protocol: The study was carried out as a block-randomized, double-blind trial. Before entry, clinical disease activity was assessed, and equilibrium in vivo dialysis of rectum was performed before the assessment of endoscopic and histologic disease activity. […] Primary stratification was done for patients already on maintenance treatment with SAZ. At day 15 the equilibrium in vivo dialysis of rectum was repeated, and clinical, endoscopic, and histologic activities were reassessed. Patients in complete clinical and endoscopic remission discontinued treatment with enemas, whereas the remainder continued therapy for another 14 days. In all cases equilibrium in vivo dialysis of rectum and assessment of disease activity were repeated at day 29. Withdrawal criteria included intolerance to treatment or deterioration (severe disease, C3) requiring systemic glucocorticoids.
In vivo dialysis of rectum was performed after insertion of a 12-cm-long dialysis bag (volume 4 ml; Visking seamless cellulose tubing 8/32 filled with Rheomacrodex@; Pharmacia, Uppsala, Sweden) containing 10% dextran (mean mol wt 40,000) in saline into the emptied rectum. To obtain equilibrium with the fluid covering the surface of rectal mucosa, the dialysis bag was left for 4 h before its contents were emptied into a test tube, which was stored immediately at -20°C (rectal dialysate) for analysis within 2 wk.
Prostaglandin E2 was measured as previously described in detail (K. Bukhave, J. Rask-Madsen J, 'Prostaglandin E2 in jejunal fluids and its potential diagnostic value for selecting patients with indomethacin-sensitive diarrhoea', 1981 European Journal of Clinical Investigation, 11:191-7) by a radioimmunologic method validated by gas chromatography-mass spectrometry (K. Bukhave, K Green, J. Rask-Madsen, 'Comparison of radioimmunological determinations with gas chromatography mass spectrometry dosage', 1983 Biomedical Mass Spectrometry, 10:265-8). The method included purification by extraction with ethylacetate/cyclo- hexane (1:1) and chromatography on microcolumns of Sephadex LH-20 (Pharmacia AB, Sweden) before performing the radioimmunoassay itself on the eluate fraction containing PGE2.

PGE2 [3] = test: Equilibrium in vivo dialysis of faeces with radioimmunoassay of PGE2 (SAZ withdrawal study); conditions: individual patients randomized to SAZ (tablets 0.5 g; 2 tablets b.i.d.) after raised PGE2; first figure of the cell
Description: as §1
Equilibrium in vivo dialysis of faeces was carried out as previously described, by pooling the contents of five swallowed dialysis bags following their intestinal transit (faecal dialysate). These dialysates were analyzed for concentrations of PGE2 (faecal PGE2).
(§2) Prostaglandin E2 was measured as previously described by a radioimmunological method validated by gas chromatograghy mass spectrometry. […]

PGE2 [4] = test: Equilibrium in vivo dialysis of rectum with radioimmunoassay of PGE2 (SAZ withdrawal study); set-up: species or system patients
Description: as §1
Equilibrium in vivo dialysis of rectum was performed after insertion of a 12-cm-long dialysis bag into the emptied rectum as described above. The bag was left for four hours when it was removed and its contents (rectal dialysate) were analyzed for concentrations of PGE2 (rectal PGE2).
as §2

O=C(O)c1cc(/N=N/c2ccc(S(=O)(=O)Nc3ccccn3)cc2)ccc1O [SAZ, sulphasalazine]
remission reinstated in relapsing patients by resuming SAZ alone ([1]; SAZ 2-3 g/day orally, 14 relapsing patients): seven cases | relapse within the six-month treatment period ([1]; SAZ 2 g/day group n=6, placebo four of five, p<0.05, Fisher's exact test): none of the six patients | patients allergic to SAZ or in other ways intolerant of the drug (ulcerative colitis): 10-20% | Concentrations of PGE2 in rectal lumen (PGE2 [2]; clinical activity 0 (inactive)): 0.61(n=3) (0.47-2.2) ng/ml | Concentrations of PGE2 in rectal lumen (PGE2 [2]; clinical activity 1 (mild)): 9.4(n=5) (0.35-36) ng/ml | Concentrations of PGE2 in rectal lumen (PGE2 [2]; clinical activity 2-3 (moderate-severe)): 8.5(n=9) (0.32-52) ng/ml | Concentrations of PGE2 in rectal lumen (PGE2 [2]; endoscopic activity 0 (inactive)): 0.61(n=3) (0.47-22) ng/ml | Concentrations of PGE2 in rectal lumen (PGE2 [2]; endoscopic activity 1 (mild)): 3.2(n=3) (0.35-5.6) ng/ml | Concentrations of PGE2 in rectal lumen (PGE2 [2]; endoscopic activity 2 (moderate)): 8.2(n=8) (0.32-36) ng/ml | Concentrations of PGE2 in rectal lumen (PGE2 [2]; endoscopic activity 3 (severe)): 36(n=3) (8.9-52) ng/ml | Fecal PGE2 levels 6 months after R (PGE2 [3]): 0.20 ng/ml and 0.38 ng/ml and 0.43 ng/ml and 0.14/ND ng/ml and 0.32 ng/ml and 0.22 ng/ml | PGE2 concentrations (PGE2 [4]; SAZ group n=6, six months after randomisation): decreased toward control levels | Rectal PGE2 levels 6 months after R (PGE2 [4]; individual patients randomized to SAZ (tablets 0.5 g; 2 tablets b.i.d.) after raised PGE2, second figure of the cell): 0.64 ng/mL and 0.59 ng/mL and 2.11 ng/mL and 0.30 ng/mL and 0.26 ng/mL
